The record followed here is PMC6536897, “Phosphorylation of Glutamine Synthetase on Threonine 301 Contributes to Its Inactivation During Epilepsy” (Frontiers in Molecular Neuroscience, 2019).

Where only a bound is given, the exact number is not on record here.

For series [1], the target named is T1, Glutamine synthetase (GS) (Mus musculus, UniProt P15105).
T1 construct: gene Glul; pET-24a(+) plasmid pNG189, codon optimised; E. coli BL21(DE3); HisTrap and Superdex 200; homomeric decamer
Put plainly: thermal shift (SyproOrange differential scanning fluorimetry). It counts as binding. The settings on record: varying MgCl2 and ATP; HEPES pH 7.5, 300 mM NaCl, 10% glycerol, 500 μM TCEP. For orientation: In DSF a fluorescence change marks the thermal transition of the protein.

For series [2], the target named is T2, Glutamine synthetase (GS) (Mus musculus, UniProt P15105, T301E).
T2 construct: gene Glul; pET-24a(+) plasmid pNG189, codon optimised; E. coli BL21(DE3); HisTrap and Superdex 200; homomeric decamer
T2 sequence (P15105 2-373 T301E): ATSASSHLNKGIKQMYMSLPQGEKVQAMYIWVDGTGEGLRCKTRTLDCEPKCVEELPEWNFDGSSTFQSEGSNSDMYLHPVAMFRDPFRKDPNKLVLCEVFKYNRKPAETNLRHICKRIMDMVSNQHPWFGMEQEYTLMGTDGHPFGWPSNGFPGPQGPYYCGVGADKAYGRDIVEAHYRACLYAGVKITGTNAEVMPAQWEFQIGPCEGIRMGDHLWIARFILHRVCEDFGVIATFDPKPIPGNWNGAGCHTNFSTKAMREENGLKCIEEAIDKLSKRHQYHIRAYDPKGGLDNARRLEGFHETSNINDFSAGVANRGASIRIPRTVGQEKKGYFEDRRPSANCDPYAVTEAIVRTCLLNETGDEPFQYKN
Nature of the series: gamma-glutamyl hydroxamate assay, absorbance […] nm. It counts as biochemical.

Series [3] has as its target T3, Glutamine synthetase (GS) (Mus musculus, UniProt P15105, T301A).
T3 construct: gene Glul; pET-24a(+) plasmid pNG189, codon optimised; E. coli BL21(DE3); HisTrap and Superdex 200; homomeric decamer
Nature of the series: gamma-glutamyl hydroxamate assay, absorbance […] nm. In kind it is biochemical.

In series [4] the target is T4, Glutamine synthetase (GS) (Mus musculus, UniProt P15105, T301V).
T4 construct: gene Glul; pET-24a(+) plasmid pNG189, codon optimised; E. coli BL21(DE3); HisTrap and Superdex 200; homomeric decamer
T4 sequence (P15105 2-373 T301V): as the sequence (P15105 2-373 T301E) above, with E300V counted along it
Put plainly: gamma-glutamyl hydroxamate assay, absorbance […] nm. It counts as biochemical.

Series [5] has as its target T1, Glutamine synthetase (GS). Nature of the series: gamma-glutamyl hydroxamate assay, absorbance […] nm. In kind it is biochemical.
Substrate in the series “purified protein”: N[C@@H](CCC(=O)O)C(=O)O
Put plainly: purified protein. In kind it is biochemical, Mus musculus. The settings on record: unphosphorylated GS (PKA + PKI), 20 mM ATP, 20 mM hydroxylamine, 20 mM MgCl2, imidazole pH 7.4, room temperature.

T3 sequence (P15105 2-373 T301A): as the sequence (P15105 2-373 T301E) above, with E300A counted along it

As to `Nc1ncnc2c1ncn2[C@@H]1O[C@H](COP(=O)(O)OP(=O)(O)OP(=O)(O)O)[C@@H](O)[C@H]1O` [ATP], the Tm entry in series [1] is reported as “incubation with MgATP increased their melting temperatures to similar extents”.

As for `CS(=N)(=O)CC[C@H](N)C(=O)O` (stereo partly drawn) [methionine sulfoximine], the IC50 (usually the concentration needed to halve the response being measured) is above 100 mM in series [2], above 100 mM in series [3], 7.6 ± 0.5 mM in series [4] and 0.182 ± 0.014 mM in series [5].

B1: Glutamine synthetase (GS) (Mus musculus) (protein)
chain: ATSASSHLNKGIKQMYMSLPQGEKVQAMYIWVDGTGEGLRCKTRTLDCEPKCVEELPEWNFDGSSTFQSEGSNSDMYLHPVAMFRDPFRKDPNKLVLCEVFKYNRKPAETNLRHICKRIMDMVSNQHPWFGMEQEYTLMGTDGHPFGWPSNGFPGPQGPYYCGVGADKAYGRDIVEAHYRACLYAGVKITGTNAEVMPAQWEFQIGPCEGIRMGDHLWIARFILHRVCEDFGVIATFDPKPIPGNWNGAGCHTNFSTKAMREENGLKCIEEAIDKLSKRHQYHIRAYDPKGGLDNARRLTGFHETSNINDFSAGVANRGASIRIPRTVGQEKKGYFEDRRPSANCDPYAVTEAIVRTCLLNETGDEPFQYKN
notes: pET-24a(+) plasmid pNG189, codon optimised; E. coli BL21(DE3); HisTrap and Superdex 200; homomeric decamer
On to B1, for which the Km (in general, the concentration of substrate that gives half-maximal velocity) in “purified protein” amounted to 21 ± 1 mM.
